The test system of this test is S. cerevisiae M11205. In kind it is cell-based, Saccharomyces cerevisiae.

SMILES strings stand for the structures.

Regarding `OCCCCO` [1,4-butanediol], the “Contribution to enhancement at higher sugar concentrations” value is “no distinct contribution for enhancement”, the “Contribution to stimulant properties versus control without addition” value is “not itself a contributor to the stimulant properties”, the “Day 5 % of Theoretical Max. Ethanol Yield” value was 88.8% and the “Effect on fermentation rates” value was “does not create the increased fermentation rates”.

The record behind these values is patent publication US20210222208A1, “SUGAR-DERIVED STIMULANT FOR ENHANCEMENT OF AEROBIC AND ANAEROBIC FERMENTATION PERFORMANCE” (priority 2018, published 2021).
